Results on two molecules are retold here after US20130189351A1, “LIPIDS SUITABLE FOR LIPOSOMAL DELIVERY OF PROTEIN CODING RNA” (priority 2010, published 2013).

This data set can be described thus: physchem.

Description: The pKa of a lipid is the pH at which 50% of the lipids are charged, lying halfway between the point where the lipids are completely charged and the point where the lipids are completely uncharged.
The pKa of a lipid is measured in water at standard temperature and pressure using the following technique: • 2 mM solution of lipid in ethanol is prepared by weighing the lipid and dissolving in ethanol. 0.3 mM solution of fluorescent probe toluene nitrosulphonic acid (TNS) in ethanol:methanol 9:1 is prepared by first making 3 mM solution of TNS in methanol and then diluting to 0.3 mM with ethanol. • An aqueous buffer containing sodium phosphate, sodium citrate sodium acetate and sodium chloride, at the concentrations 20 mM, 25 mM, 20 mM and 150 mM, respectively, is prepared. The buffer is split into eight parts and the pH adjusted either with 12N HCl or 6N NaOH to 4.44-4.52, 5.27, 6.15-6.21, 6.57, 7.10-7.20, 7.72-7.80, 8.27-8.33 and 10.47-11.12. 400 uL of 2 mM lipid solution and 800 uL of 0.3 mM TNS solution are mixed. • 7.5 μL of probe/lipid mix are added to 242.5 μL of buffer in a 1 mL 96 well plate. This is done with all eight buffers. […]

In the case of `CCCCC/C=C\C/C=C\CCCCCCCCOCC(CN1CCCC1C)OCCOCCOCCNC(=O)CCC(=O)O[C@H]1CC[C@@]2(C)C(=CC[C@H]3[C@@H]4CC[C@H]([C@H](C)CCCC(C)C)[C@@]4(C)CC[C@@H]32)C1` (some centres unmarked) [RV10], the pKa came to 7.86.

As to `CCCCC/C=C\C/C=C\CCCCCCCCOCC(CN1CCC(C)(C)C1)OCCOCCO[C@H]1CC[C@@]2(C)C(=CC[C@H]3[C@@H]4CC[C@H]([C@H](C)CCCC(C)C)[C@@]4(C)CC[C@@H]32)C1` (some centres unmarked) [RV05], the pKa amounted to 5.85.

One may read the pKa as the negative logarithm of the acid dissociation constant.
